The text below walks through data of patent publication US7314969B2, “Methods and compositions for the introduction of molecules into cells” (priority 1999, dated 2008).

The subject of data set [1] is embryogenic soybean callus. As to the kind of experiment: Effect of media constituents on growth of embryogenic soybean callus in B1-30. It is filed as cell-based. The text has this: In another embodiment of the present invention, a novel culture media may be used to stimulate high frequency production of embryogenic soybean callus. Improvement varied with the genotype being cultured. […] The inclusion of one or more of four media constituents, coconut water, myoinositol, phytic acid and inorganic phosphate concentration, enhanced embryogenic callus production and allowed significant improvements to be made to transgenic clone production in terms of number of clones recovered, embryo morphology, and reduction in the time needed to identify the clones and regenerate plants from them. The medium of Ranch et al., 1985 (referred to herein as B1-30) was used as the basal medium. An example of the medium of the present invention is B1-30 3Co5My0.25PA0.5K (footnote, Table 5). Although this medium is a preferred emobodiment of growth medium, other conventional media may be utilized in the practice of the invention.
Coconut water has been included in tissue culture media for over 50 years. Coconut water is liquid taken from coconuts to promote growth in plant tissue cultures. It is deproteinized then filter-sterilized. An example is Sigma Biosciences' Cat. No. C5915. […] Most commonly coconut water is used at concentrations of between 5% and 10% by volume of the final culture medium. The role of coconut water in stimulating the growth of embryogenic callus in soybean was investigated and it was discovered that its effect on cotyledon explants routinely used to initiate embryogenic callus of soybean was detrimental when tested at these concentrations.
One key component of coconut water is myoinositol (Pollard et al., 1961). In an attempt to improve the growth of embryogenic soybean callus with components of coconut water, it was discovered that myoinositol was effective in this regard. Myoinositol has been included in tissue culture media for a variety of plant species. Although apparently not required for all species (Halperin, 1966), it is routinely included in media such as the widely used Murashige and Skoog formulation (Murashige and Skoog, 1962) at a concentration of 100 mg/l. It is at this concentration that it has been included in media used for the culture of embryogenic callus of soybean (e.g., see Ranch et al., 1985).
There are no known reports of the inclusion of phytic acid in culture media for any plant species. Soybean seeds are rich in natural chelating agents, the most prominent of which is phytic acid (Gibson and Ullah, 1990). Substantial amounts of phosphate are stored in seeds in the form of phytate (Raboy, 1990). It is possible that the capacity of phytic acid to sequester inorganic phosphate has a significant impact upon C partitioning into either starch or sucrose. At 1 gm/l in B1-30, embryogenic callus of a range of genotypes exuded starch, possibly confirming the impact of phytic acid on C partitioning. […] Best results over many passages were obtained with the addition of about 5 mg/l to about 250 mg/l phytic acid to the culture medium depending on the genotype.
Inorganic phosphorous in the form of KH2PO4, in excess of the amount conventionally used, was added to the base medium (B1-30) along with myoinositol and coconut water. This medium was tested against B1-30 supplemented with phytic acid in addition to KH2PO4, myoinositol and coconut water.

A further data set has as its system DH5 cells. Type of data set: cell-based, E. coli. The conditions noted are these: 10 mg/l tetracycline.
A further data set deals with bacterial cells. It is filed as cell-based, E. coli. The protocol:
Transformation of bacteria using the method of the invention was accomplished as follows: competent E. coli DH5 alpha (Gibco BRL) or HB101 cells were thawed on ice and 5 to 50 microliters were combined with 0.2 ml LB broth. The mixture was pipetted to the center of a plate of LB agar (1.5%) containing 100 mg/l ampicillin and allowed to dry. Aerosol beam parameters were the same as those described previously (Example 1) except as noted in this Example. A pUC-derived plasmid encoding for resistance to the antibiotic ampicillin was delivered to the bacterial cells, as is known in the art. The concentration of DNA ranged from about 1.0 to 1000 μg/ml in 10 mM Tris (pH7.0) or a carbohydrate molecule, such as 1 g/l sucrose. The nebulizing pressure was from about 10 to about 40 psi, preferably 30 to 40 psi. The entrainment temperature was maintained in a given experiment and ranged between experiments from about 24° to about 55° C., and was preferably maintained at about 42° to about 55° C. and most preferably at about 55° C. Various sample flow rates were tested ranging from about 0.25 ml/hour to about 2.0 ml/hour (about 4 μl/min. to about 33 μl/min.). Preferably the flow rate was about 8.0 μl/minute to about 17.0 μl/minute.
Nucleic acid and protein were simultaneously delivered into bacterial cells. Preparation of bacteria and parameters for the aerosol beam apparatus were the same as described previously for delivery of DNA into bacteria (Example 12). The same buffer, plasmid, and plasmid concentration was used as described in the transformation of bacteria. Ribonuclease A (RNASE A) (Sigma cat. no. R6513) was added to the DNA sample at a final concentration of 2.5 μg/ml.
As a control, RNASE A at the same concentration used for beaming was pipetted on the cells after the cells were beamed with DNA only. […] To verify that the RNASE A was not degrading the plasmid, the plasmid treated with RNASE A was run on a standard 1% agarose gel. After staining the DNA with ethidium bromide, the DNA appeared intact and no degradation was evident. […]

[2] abbreviates: 1 microgram pSB1 in 1.0 ml plus 1.0 ul of 2.0 ug/ul polyamine.
[3] abbreviates: 1 microgram pSB1 in 1.0 ml plus 2.0 ul of 20 ug/ul cationic polypeptide.

Where two headings read alike, the source gives them in different places.

Experimental for DH5 cells: One microgram of supercoiled pSB1 was added to 1.0 ml of sterile ddH2O and briefly vortexed. […] For a control SB1 plasmid was used without the addition of any cationic polypeptides. Transformation of bacteria was carried out as described in Example 17. Briefly, subcloning efficient DH5 cells from Invitrogen were transformed. Ten microliters of cells were mixed with 0.1 ml of YP medium (10 g/L peptone, 5 g/L yeast extract, and 5 g/L NaCl). The cells were pipeted in the center of a YP plate (same as above plus 15.0 g/L agar) and allowed to dry in a laminar flow hood. The pSB1 plus or minus cationic polypeptides was introduced into the cells using an aerosol beam injector as described in parent U.S. patent application Ser. No. 09/724,265. After about 1 hour of incubation at 37° C., the aerosol beamed cells plus the YP medium were cut out as a slab and placed on YP medium with 10 mg/1 tetracycline. Plasmid SB1 harbors resistance to the antibiotic tetracycline. The cells were grown overnight at 37° C. and then evaluated for the presence of colonies that were growing on the medium. If the plasmid pSB1 were sheared it would not replicate in the cell, thus no antibiotic resistant colony would have formed, however, if the plasmid was not sheared it could replicate once inside the cell and an antibiotic colony would have appeared.

As for `O=P([O-])(O)O.[K+]` [KH2PO4], in data set [1] (500 and 1000 mg/l added to B1-30 with myoinositol and coconut water, with and without phytic acid), the “effect on embryogenic soybean callus” value is on record as “Beneficial effects”.

Regarding `O[C@H]1[C@H](O)[C@@H](O)[C@H](O)[C@@H](O)[C@H]1O` [myoinositol], the “effect on growth of embryogenic soybean callus” value in data set [1] (up to 10 g/l, alone or in combination with coconut water) is “pronounced and beneficial effect”. `O=P(O)(O)O[C@H]1[C@H](OP(=O)(O)O)[C@@H](OP(=O)(O)O)[C@H](OP(=O)(O)O)[C@@H](OP(=O)(O)O)[C@H]1OP(=O)(O)O` [phytic acid, inositolhexaphosphoric acid]: the “rate of growth of embryogenic callus” value in data set [1] (1, 5, 10, 50, 100, 250, 500 and 1000 mg/l in B1-30, initial culture passage and/or maintenance as stock culture) is on record as “significantly increased”. Besides, in data set [1] (1 gm/l in B1-30, range of genotypes), the “growth of soybean callus after initial starch exudation” value was “grew very vigorously”. Also, in data set [1] (3000 mg/l, callus browned and died), the “effect on embryogenic callus” value is on record as “clear detrimental effect”. `NCCCCNCCCN` [spermidine]: the “transformed colonies growing per plate” value in the data set with DH5 cells (setting [2]) is “about 500 colonies per plate”.

As to `NCCCNCCCCNCCCN` [spermine], the “transformed colonies growing per plate” value in the data set with DH5 cells (setting [2]) was “about 500 colonies per plate”.

Regarding Poly-L-Lysine, the “transformed colonies growing per plate” value in the data set with DH5 cells (setting [3]) was “about 500 colonies per plate”. For Poly-L-Ornithine, the “transformed colonies growing per plate” value with DH5 cells (setting [3]) is “about 500 colonies per plate”.

B1: RNASE A: Ribonuclease A (Sigma cat. no. R6513) (protein, UniProt P61823 27-150, looked up)
Ribonuclease pancreatic: KETAAAKFERQHMDSSTSAASSSNYCNQMMKSRNLTKDRCKPVNTFVHESLADVQAVCSQKNVACKNGQTNCYQSYSTMSITDCRETGSSKYPNCAYKTTQANKHIIVACEGNPYVPVHFDASV
In the case of B1, the “colonies on medium containing ampicillin” value is listed as “no colonies were observed” in the data set with bacterial cells (2.5 μg/ml beamed together with DNA) and “transformed colonies grew” in the data set on bacterial cells (same concentration pipetted on the cells after beaming with DNA only).

B2: inactivated RNASE A: RNASE A inactivated with diethylpyrocarbonate (DEP) (protein, UniProt P61823 27-150, looked up)
Ribonuclease pancreatic: KETAAAKFERQHMDSSTSAASSSNYCNQMMKSRNLTKDRCKPVNTFVHESLADVQAVCSQKNVACKNGQTNCYQSYSTMSITDCRETGSSKYPNCAYKTTQANKHIIVACEGNPYVPVHFDASV
modifications: inactivated with diethylpyrocarbonate
Take B2: in the data set on bacterial cells (RNASE A inactivated with diethylpyrocarbonate, beamed with DNA), the transformation of bacteria entry is “normal transformation of bacteria”.
